Experimental data: patent US9708336B2, “Metallo-beta-lactamase inhibitors” (priority 2014, dated 2017)
Counter-ions that a name gives are not always drawn. Like-named read-outs stand apart in the source and are kept apart here.

Key:
[1] = target: IMP-1 (Serratia marcescens, UniProt P52699); experiment: biochemical; assay type: biochemical; settings: read-out: IMP-1 IC50
[2] = test system: Escherichia coli expressing NDM-1 (CLB30005); experiment: Antibiotic potentiation activity: synergistic concentration (MITC95) with imipenem, OD600 growth; assay type: cell-based; settings: for Escherichia coli MITC95: Escherichia coli expressing NDM-1 (CLB30005), 95% growth inhibition; for Escherichia coli expressing NDM-1 (CLB 30005) MITC95: concentration giving 95% inhibition of bacterial growth
How it was run: (§1)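 Test compound was combined with 4 μg/ml imipenem (or optionally 1 μg/ml), or with no antibiotic, against saline-suspended colonies diluted 1:100 in 1.1×CAMHB. Strains were E. coli NDM-1, S. marcescens IMP-1 and K. pneumoniae VIM-1. Plates were incubated 22–24 h at 35 °C before absorbance (OD600) readout.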

[3] = test system: Klebsiella pneumoniae expressing VIM-1 (IHMA599644); experiment: as above; assay type: cell-based; settings: for Klebsiella pneumoniae MITC95: Klebsiella pneumoniae expressing VIM-1 (IHMA599644), 95% growth inhibition; for Klebsiella pneumoniae expressing VIM-1 (IHMA 599644) MITC95: concentration giving 95% inhibition of bacterial growth
How it was run: as §1

[4] = test system: Serratia marcescens expressing IMP-1 (CL5741); experiment: as above; assay type: cell-based; settings: for Serratia marcescens MITC95: Serratia marcescens expressing IMP-1 (CL5741), 95% growth inhibition; for Serratia marcescens expressing IMP-1 (CL5741) MITC95: concentration giving 95% inhibition of bacterial growth
How it was run: as §1

[5] = test system: Escherichia coli expressing NDM-1 (CLB30016); experiment: as above; assay type: cell-based; settings: for Escherichia coli MITC95: Escherichia coli expressing NDM-1 (CLB30016), 95% growth inhibition; for Escherichia coli expressing NDM-1 (CLB 30016) MITC95: concentration giving 95% inhibition of bacterial growth
How it was run: as §1

[6] = target: VIM-1 (Pseudomonas aeruginosa (strain ATCC 15692 / DSM 22644 / CIP 104116 / JCM 14847 / LMG 12228 / 1C / PRS 101 / PAO1), UniProt A0A0F7KYQ8); experiment: Enzyme activity: determination of IC50, fluorescence assay with CCF2-FA substrate (VIM-1); assay type: biochemical
[7] = target: NDM-1 (Klebsiella pneumoniae, UniProt C7C422); experiment: biochemical; assay type: biochemical; settings: read-out: NDM-1 IC50
[8] = IMP-1 enzyme, CCF2-FA fluorescence assay
[9] = VIM-1 enzyme, CCF2-FA fluorescence assay, read-out: VIM-1 IC50
[10] = NDM-1 enzyme, CCF2-FA fluorescence assay
[11] = fluorescence assay with CCF2-FA substrate
[12] = fluorescence assay with CCF2-FA substrate, read-out: VIM-1 IC50
[13] = VIM-1 IC50, fluorescence assay with CCF2-FA substrate

Chain of NDM-1 (C7C422 whole entry, looked up, species assumed): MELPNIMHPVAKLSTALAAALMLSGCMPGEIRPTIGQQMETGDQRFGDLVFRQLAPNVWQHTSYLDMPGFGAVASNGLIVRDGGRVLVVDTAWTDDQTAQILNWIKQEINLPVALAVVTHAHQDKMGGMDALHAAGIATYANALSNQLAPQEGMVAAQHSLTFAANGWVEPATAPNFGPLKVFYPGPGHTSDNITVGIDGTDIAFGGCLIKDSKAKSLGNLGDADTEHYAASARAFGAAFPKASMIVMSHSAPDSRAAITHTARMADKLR
Chain of IMP-1 (P52699 whole entry, looked up): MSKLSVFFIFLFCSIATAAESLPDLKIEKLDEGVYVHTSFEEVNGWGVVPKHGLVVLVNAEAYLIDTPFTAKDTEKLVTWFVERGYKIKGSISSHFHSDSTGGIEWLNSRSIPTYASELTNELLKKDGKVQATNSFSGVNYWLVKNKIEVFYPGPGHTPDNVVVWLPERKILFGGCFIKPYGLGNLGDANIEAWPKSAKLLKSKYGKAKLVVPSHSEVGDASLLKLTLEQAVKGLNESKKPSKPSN

| Compound | IC50 [1, 8] | Escherichia coli MITC95 [2] | Klebsiella pneumoniae MITC95 [3] | Serratia marcescens MITC95 [4] | Escherichia coli MITC95 [5] | IC50 [6, 9] | IC50 [7, 10] | IC50 [1, 11] | Escherichia coli expressing NDM-1 (CLB 30005) MITC95 [2] | Klebsiella pneumoniae expressing VIM-1 (IHMA 599644) MITC95 [3] | Serratia marcescens expressing IMP-1 (CL5741) MITC95 [4] | Escherichia coli expressing NDM-1 (CLB 30016) MITC95 [5] | IC50 [6, 12] | IC50 [7, 11] | IC50 [6, 13] | IC50 ([6]; VIM-1 IC50, VIM-1 enzyme, CCF2-FA fluorescence assay) |
| --- | --- | --- | --- | --- | --- | --- | --- | --- | --- | --- | --- | --- | --- | --- | --- | --- |
| NS(=O)(=O)c1cccc(-c2ccnc3ccccc23)c1-c1nn[nH]n1 [Example 319, 3-(quinolin-4-yl)-2-(2H-tetrazol-5-yl)benzenesulfonamide] | 62.2 nM | 0.3906 µM | 3.906 µM | 3.906 µM | 3.906 µM | 0.886 nM | 0.551 nM | – | – | – | – | – | – | – | – | – |
| Nc1ccc(-c2cccc(S(N)(=O)=O)c2-c2nnn[nH]2)cn1 [Example 298, 3-(6-Aminopyridin-3-yl)-2-(1H-tetrazol-5-yl)benzene sulfonamide, TFA salt] | 776 nM | 0.1953 µM | 12.5 µM | 8.333 µM | 0.04688 µM | 251 nM | 71.7 nM | – | – | – | – | – | – | – | – | – |
| Nc1ccc(-c2ccnc(S(N)(=O)=O)c2-c2nn[nH]n2)cn1 [Example 215, 6-amino-3′-(2H-tetrazol-5-yl)-[3,4′-bipyridine]-2′-sulfonamide] | – | – | – | – | – | – | – | 1860 nM | 0.1953 µM | 12.5 µM | 18.75 µM | 0.25 µM | 494 nM | 90.9 nM | – | – |
| NS(=O)(=O)c1cccc(-c2ccc3nccn3c2)c1-c1nn[nH]n1 [Example 318, 3-(imidazo[1,2-a]pyridin-6-yl)-2-(2H-tetrazol-5-yl)benzenesulfonamide] | 295 nM | 0.1953 µM | 4.688 µM | 6.25 µM | 0.0625 µM | 24.6 nM | 2.13 nM | – | – | – | – | – | – | – | – | – |
| NS(=O)(=O)c1cccc(-c2cnn3ccccc23)c1-c1nn[nH]n1 [Example 98, 3-pyrazolo[1,5-a]pyridin-3-yl-2-(2H-tetrazol-5-yl)benzenesulfonamide] | – | – | – | – | – | – | – | 320 nM | 0.9766 µM | 18.75 µM | 7.813 µM | 0.7813 µM | – | 2.7 nM | 29.4 nM | – |
| NS(=O)(=O)c1cccc(-c2cnc3[nH]ccc3c2)c1-c1nn[nH]n1 [Example 312, 3-(1H-pyrrolo[2,3-b]pyridin-5-yl)-2-(2H-tetrazol-5-yl)benzenesulfonamide] | 107 nM | 0.3906 µM | 3.125 µM | 5.469 µM | 0.5859 µM | 6.5 nM | 0.95 nM | – | – | – | – | – | – | – | – | – |
| CN(C)CCCOc1ccc(-c2cccc(S(N)(=O)=O)c2-c2nn[nH]n2)cn1 [Example 30, 3-(6-(3-(dimethylamino)propoxy)pyridin-3-yl)-2-(2H-tetrazol-5-yl)benzenesulfonamide] | – | – | – | – | – | – | – | 1670 nM | 3.125 µM | 200 µM | 50 µM | 1.563 µM | – | 132 nM | 875 nM | – |
| CS(=O)(=O)Nc1ccc(-c2ccnc(S(N)(=O)=O)c2-c2nn[nH]n2)cc1 [Example 206, 4-(4-(methylsulfonamido)phenyl)-3-(2H-tetrazol-5-yl)pyridine-2-sulfonamide] | – | – | – | – | – | – | – | 91.5 nM | 0.1953 µM | 3.125 µM | 4.125 µM | 0.375 µM | 14.2 nM | 11.4 nM | – | – |
| NS(=O)(=O)c1cccc(-c2ccc3[nH]ncc3c2)c1-c1nn[nH]n1 [Example 313, 3-(1H-indazol-5-yl)-2-(2H-tetrazol-5-yl)benzenesulfonamide] | 66.9 nM | 0.4635 µM | 7.031 µM | 3.906 µM | 0.5859 µM | 13.4 nM | 0.77 nM | – | – | – | – | – | – | – | – | – |
| Cc1ccc(-c2cccc(S(N)(=O)=O)c2-c2nnn[nH]2)cc1 [Example 1, 4′-Methyl-2-(1H-tetrazol-5-yl)-[1,1′-biphenyl]-3-sulfonamide] | – | – | – | – | – | – | – | 64.8 nM | 1.489 µM | 123.3 µM | 11.96 µM | 0.7595 µM | 57.6 nM | 3.77 nM | – | – |
| NS(=O)(=O)c1cccc(-c2cncnc2)c1-c1nn[nH]n1 [Example 42, 3-pyrimidin-5-yl-2-(2H-tetrazol-5-yl)benzenesulfonamide] | – | – | – | – | – | – | – | 10500 nM | 1.563 µM | >200 µM | 200 µM | 0.7813 µM | 9960 nM | 543 nM | – | – |
| Cc1ccncc1-c1cccc(S(N)(=O)=O)c1-c1nn[nH]n1 [Example 317, 3-(4-methylpyridin-3-yl)-2-(2H-tetrazol-5-yl)benzenesulfonamide] | 360 nM | 0.125 µM | 18.75 µM | 9.375 µM | 0.1875 µM | – | 5.38 nM | – | – | – | – | – | – | – | – | 46 nM |
